Experimental data reported in patent US10668040B2, “Treatment of urea cycle disorders in neonates and infants” (Horizon Therapeutics, LLC, priority 2017, dated 2020).

Test system: UCD patients
Test: Example 3: TEAEs, serious and non-serious adverse events
Format: in vivo
Source text: Sixteen newborn infants aged 0 to 27 days, and 10 infants and toddlers aged 28 days to 23 months received RAVICTI Oral Liquid administered just prior to breastfeeding or intake of formula or food. The recommended dosing regimen was 3-6 times per day depending on feeding schedule.
Number of Subjects with Treatment-Emergent Adverse Events (TEAEs), Serious TEAEs, Deaths, and Discontinuations Due to TEAEs
An adverse event (AE) is any untoward medical occurrence, whether or not the event is considered related to the study drug. A serious AE is any AE that: results in death; is life threatening; requires hospitalization or prolongation of existing hospitalization; results in disability/incapacity; is a congenital anomaly/birth defect; is an important medical event. TEAEs are defined as AEs with an onset date on or after the first dose of study medication until study discontinuation. The Investigator assessed the causal relationship of each TEAE to the study drug as not related, possibly related, or probably related. From the first dose of study treatment through 30 days after the final dose (mean [SD] duration of treatment was 9.13 [6.838] months).

[1] = Non-serious adverse events, Age 0 to <2 Months

O=C(CCCc1ccccc1)OCC(COC(=O)CCCc1ccccc1)OC(=O)CCCc1ccccc1 [RAVICTI, benzenebutanoic acid, 1′,1″-(1,2,3-propanetriyl) ester]
6: Dermatitis diaper, Occurrences (all) [1] | Diarrhoea, Occurrences (all) [1] | Gastrooesophageal reflux disease, Occurrences (all) [1]
1: Agitation, Occurrences (all) [1] | Alanine aminotransferase increased, Occurrences (all) [1] | Amino acid level decreased, Occurrences (all) [1] | Ammonia increased, Occurrences (all) [1] | Anion gap increased, Occurrences (all) [1] | Arthropod bite, Occurrences (all) [1] | Aspartate aminotransferase increased, Occurrences (all) [1] | Blood bicarbonate decreased, Occurrences (all) [1] | Blood urea decreased, Occurrences (all) [1] | Body height below normal, Occurrences (all) [1] | Cardiac disorders (Tachycardia), Occurrences (all) [1] | Catheter site rash, Occurrences (all) [1] | Device occlusion, Occurrences (all) [1] | Drug withdrawal syndrome, Occurrences (all) [1] | Dysphagia, Occurrences (all) [1] | Eye discharge, Occurrences (all) [1] | Feeding disorder of infancy or early childhood, Occurrences (all) [1] | Gamma-glutamyltransferase increased, Occurrences (all) [1] | Gastroenteritis, Occurrences (all) [1] | Gastrointestinal viral infection, Occurrences (all) [1] | Hepatobiliary disorders (Hepatic calcification), Occurrences (all) [1] | Hypophagia, Occurrences (all) [1]
0/0: Serious AE Feeding Disorder: Occurrences causally related to treatment/all (Age 2 Months to <2 Years) | Serious AE Gastroenteritis: Deaths causally related to treatment/all (Age 2 Months to <2 Years) | Serious AE Hyperammonaemia: Deaths causally related to treatment/all (Age 2 Months to <2 Years) | Serious AE Influenza: Deaths causally related to treatment/all (Age 2 Months to <2 Years) | Serious AE Lethargy: Deaths causally related to treatment/all (Age 2 Months to <2 Years) | Serious AE Lethargy: Occurrences causally related to treatment/all (Age 2 Months to <2 Years) | Serious AE Medical device site infection: Deaths causally related to treatment/all (Age 2 Months to <2 Years) | Serious AE Medical device site infection: Occurrences causally related to treatment/all (Age 2 Months to <2 Years) | Serious AE Meningitis bacterial: Deaths causally related to treatment/all (Age 2 Months to <2 Years) | Serious AE Meningitis bacterial: Occurrences causally related to treatment/all (Age 2 Months to <2 Years) | Serious AE Neutropenia: Deaths causally related to treatment/all (Age 2 Months to <2 Years) | Serious AE Neutropenia: Occurrences causally related to treatment/all (Age 2 Months to <2 Years) | Serious AE Pyrexia: Deaths causally related to treatment/all (Age 2 Months to <2 Years) | Serious AE Respiratory syncytial virus infection: Deaths causally related to treatment/all (Age 2 Months to <2 Years) | Serious AE Rhinovirus infection: Deaths causally related to treatment/all (Age 2 Months to <2 Years) | Serious AE Status asthmaticus: Deaths causally related to treatment/all (Age 2 Months to <2 Years) | Serious AE Tracheitis: Deaths causally related to treatment/all (Age 2 Months to <2 Years) | Serious AE Tracheitis: Occurrences causally related to treatment/all (Age 2 Months to <2 Years) | Serious AE Upper respiratory tract infection: Deaths causally related to treatment/all (Age 2 Months to <2 Years) | Serious AE Upper respiratory tract infection: Occurrences causally related to treatment/all (Age 2 Months to <2 Years) | Serious AE Urinary tract infection: Deaths causally related to treatment/all (Age 2 Months to <2 Years) | Serious AE Viral infection: Deaths causally related to treatment/all (Age 2 Months to <2 Years) | Serious AE Viral upper respiratory tract infection: Deaths causally related to treatment/all (Age 2 Months to <2 Years) | Serious AE Vomiting: Deaths causally related to treatment/all (Age 2 Months to <2 Years) | Serious AE Vomiting: Occurrences causally related to treatment/all (Age 2 Months to <2 Years)
5: Cough, Occurrences (all) [1]
0/7: Serious AE Hyperammonaemia: Occurrences causally related to treatment/all (Age 2 Months to <2 Years)
2: Amino acid level increased, Occurrences (all) [1] | Angular cheilitis, Occurrences (all) [1] | Candida infection, Occurrences (all) [1] | Carbon dioxide decreased, Occurrences (all) [1] | Constipation, Occurrences (all) [1] | Croup infectious, Occurrences (all) [1] | Decreased appetite, Occurrences (all) [1] | Eczema, Occurrences (all) [1] | Hepatic enzyme increased, Occurrences (all) [1]
3: Anaemia, Occurrences (all) [1] | Ear infection, Occurrences (all) [1] | Flatulence, Occurrences (all) [1] | Hyperammonaemia, Occurrences (all) [1]
0: Apnoea, Occurrences (all) [1] | Conjunctivitis, Occurrences (all) [1] | Dacryostenosis congenital, Occurrences (all) [1] | Ear and labyrinth disorders (Excessive cerumen production), Occurrences (all) [1] | Gross motor delay, Occurrences (all) [1] | Immune System Disorders (Seasonal allergy), Occurrences (all) [1]
0/1: Serious AE Gastroenteritis: Occurrences causally related to treatment/all (Age 2 Months to <2 Years) | Serious AE Influenza: Occurrences causally related to treatment/all (Age 2 Months to <2 Years) | Serious AE Peritonitis: Deaths causally related to treatment/all (Age 2 Months to <2 Years) | Serious AE Peritonitis: Occurrences causally related to treatment/all (Age 2 Months to <2 Years) | Serious AE Pneumatosis intestinalis: Deaths causally related to treatment/all (Age 2 Months to <2 Years) | Serious AE Pneumatosis intestinalis: Occurrences causally related to treatment/all (Age 2 Months to <2 Years) | Serious AE Pyrexia: Occurrences causally related to treatment/all (Age 2 Months to <2 Years) | Serious AE Status asthmaticus: Occurrences causally related to treatment/all (Age 2 Months to <2 Years) | Serious AE Urinary tract infection: Occurrences causally related to treatment/all (Age 2 Months to <2 Years) | Serious AE Viral upper respiratory tract infection: Occurrences causally related to treatment/all (Age 2 Months to <2 Years)
0/2: Serious AE Viral infection: Occurrences causally related to treatment/all (Age 2 Months to <2 Years)
4: Dehydration, Occurrences (all) [1]
